Reference: US9427691B2, “Antimicrobial air filter” (PTI Technologies, Inc., priority 2014, dated 2016)

What was measured:
Assay type in all cases: cell-based
[1] = tested on: Staphylococcus aureus (ATCC #6538); assay: quantitative test for bacterial growth on treated air filter media; details: for # of Bacteria Recovered / % Reduction / Log Reduction (S): air filter media saturated with solution and dried, 18 hours at 37 C
Protocol: There are various anti-microbial agents that are available for application to the air filter media 16. […] To determine the effectiveness of an antimicrobial agent with regard to bacteria, samples of air filter media 16 were treated with various solutions of antimicrobial agents and subjected to a quantitative test. In the quantitative test for bacterial growth, an air filter media sample was saturated with a solution of an antimicrobial agent and allowed to dry. The air filter media sample was then placed in a sealed container and a 0.2 mL inoculum of Staphylococcus aureus (ATCC #6538) was placed, in microdroplets, on the surface of the air filter media sample. A solution having a 0.05% concentration of polysorbate 80 was added to the inoculum as a wetting agent. The air filter media sample was then incubated for 18 hours at a temperature of 37 C°. After incubation, 20 mL of […] broth was added to the container, and the container was shaken. The bacteria in the resulting liquid were then quantified using a series of dilution plates.

Aspergillus niger fungus = assay: antifungal test AATCC Test Method 30-2013 on treated air filter media
Protocol: (§1) Air filter media samples treated with the aforementioned antimicrobial solutions were then tested for antifungal properties using the common American Association of Textile Chemists and Colorists (AATCC) Test Method 30-2013. […] A larger growth-free zone indicates higher antifungal properties, and a higher surface inhibition indicates higher antifungal properties. The test was performed for both Aspergillus niger and Trichoderma virens species of fungus.

[2] = tested on: Trichoderma virens fungus; assay: as above
Protocol: as §1

| SMILES | effectiveness at inhibiting bacterial growth (in words) [1] | # of Bacteria Recovered [1] | % Reduction [1] | Log Reduction (S) [1] | effectiveness at inhibiting fungal growth (in words) (Aspergillus niger fungus) | Growth-Free Zone in MM (Aspergillus niger fungus; treated filter media) | Surface Inhibition (Aspergillus niger fungus; treated filter media) | effectiveness at inhibiting fungal growth (in words) [2] | Growth-Free Zone in MM ([2]; treated filter media) | Surface Inhibition ([2]; treated filter media) |
| --- | --- | --- | --- | --- | --- | --- | --- | --- | --- | --- |
| Cc1ccc(S(=O)(=O)C(I)I)cc1 [1% diiodomethyl-p-tolyl sulfone, diiodomethyl-p-tolyl sulfone] | most effective | <2.00 × 10^1 | >99.9% | >4.8 | did not inhibit any growth | 0 MM | 0 | limited in its effectiveness | 0 MM | 50 |
| [Cl][Ag] [2% silver chloride, silver chloride] |  | 1.81 × 10^4 | 98.6% | 1.8 |  |  |  |  |  |  |
